Experimental findings from ChEMBL document CHEMBL1201862, “PubChem BioAssay data set” (2004) are described below.

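Where inhibition never reached the appropriate level, the endpoint shown equals the highest concentration tested. Otherwise, values were interpolated linearly from a five-concentration, 48-hour dose response in 96-well plates. Here, GI50 denotes the concentration required for 50% inhibition of growth.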 Activity calls are given as the source filed them. Rule as the data show it: active = GI50 up to about 1.1 µM and inactive = higher.

Among the test systems are DMS-114; HOP-18; KM-20L2; LXFL 529; M19-MEL; RXF 631; SNB-78; DMS-273; XF498.
Assay in all cases: NCI anticancer screen, dose series, 48 h

As for `O=C(COc1ccccc1)NS(=O)(=O)c1ccccc1`, the GI50 in the experiment with DMS-114, in the experiment on HOP-18, with KM-20L2, in the experiment with LXFL 529, in the experiment on M19-MEL and in the experiment with RXF 631 was > 100 µM (inactive) each time. For the same compound, the GI50 in the experiment on SNB-78 is > 100 µM (inactive).

In the case of `COC(=O)C(=O)C(C(=O)C(=O)Nc1cccc(C(C)=O)c1)c1nc2ccccc2nc1O` (stereo not drawn), the GI50 with DMS-114, with DMS-273, with HOP-18, in the experiment on KM-20L2, in the experiment with LXFL 529 and in the experiment with M19-MEL was > 100 µM (inactive) each time. In addition, the GI50 with RXF 631 was > 100 µM (inactive).

In the case of `CC(=O)NC1=C(C)C(=O)c2c(nc3n2CCC3OC(=O)CCl)C1=O` (stereo not drawn), the GI50 was 17.2 µM (inactive) with DMS-273, 2.11 µM (inactive) with LXFL 529, 12.5 µM (inactive) in the experiment on M19-MEL and 2.96 µM (inactive) in the experiment with SNB-78.

In the case of `Cc1c(C(=O)CC(=O)C(=O)Nc2cc(Cl)ccc2Cl)[n+]([O-])c2ccccc2[n+]1[O-]`, the GI50 with DMS-114 was 25.9 µM (inactive); in the experiment with DMS-273, 26.1 µM (inactive); in the experiment with HOP-18, 34.1 µM (inactive); in the experiment on KM-20L2, 36.1 µM (inactive); in the experiment with LXFL 529, 45.6 µM (inactive); with M19-MEL, 25 µM (inactive). Also, the GI50 in the experiment with SNB-78 is 50.1 µM (inactive); with XF498, 51.3 µM (inactive).

As to `CC(=O)NNc1nc(C)c(C(/C=C/c2ccc(Cl)cc2)=N\N=C(N)N)s1`, the GI50 with DMS-273, in the experiment with KM-20L2, with LXFL 529, in the experiment with M19-MEL, in the experiment with RXF 631 and in the experiment with SNB-78 was > 100 µM (inactive) in each case. The GI50 with XF498 was > 100 µM (inactive).

Regarding `COC(=O)C12OCC34C(CC5C(C)C6=CC(=O)OC6=CC5(C)C3C(O)C1O)OC(=O)C(O)C24` (stereo not drawn), the GI50 was 0.859 µM (active) in the experiment with DMS-114; 0.178 µM (active) in the experiment with DMS-273; 0.676 µM (active) in the experiment on HOP-18; 0.957 µM (active) in the experiment on KM-20L2; 0.101 µM (active) with LXFL 529; 0.192 µM (active) in the experiment on M19-MEL. For the same compound, the GI50 in the experiment on SNB-78 was 0.474 µM (active).

Consider `N#CC(C(=O)CCC(=O)Nc1ccc(Cl)cc1)c1ccc(Cl)cc1` (stereo not drawn), for which the GI50 is > 100 µM (inactive) in the experiment on DMS-114; > 100 µM (inactive) in the experiment with DMS-273; 97.3 µM (inactive) in the experiment with HOP-18; 11.5 µM (inactive) in the experiment on KM-20L2; 9.33 µM (inactive) in the experiment with LXFL 529; > 100 µM (inactive) in the experiment on M19-MEL. For the same compound, the GI50 in the experiment on RXF 631, with SNB-78 and in the experiment on XF498 was > 100 µM (inactive) each time.

Take `Cc1ccc(S(=O)(=O)N/N=C/c2oc(-c3ccccc3Cl)c(-c3ccccc3Cl)c2[N+](=O)[O-])cc1`: the GI50 was 17.3 µM (inactive) in the experiment with DMS-114, 15.4 µM (inactive) with KM-20L2, 23.3 µM (inactive) with M19-MEL and 19.3 µM (inactive) in the experiment on RXF 631.

Turning to `Nc1c(S(=O)(=O)c2ccccc2)c2nc3ccccc3nc2n2c1nc1ccccc12`, the GI50 in the experiment with DMS-114 was > 69.3 µM (inactive); with DMS-273, 7.67 µM (inactive); in the experiment with KM-20L2, > 100 µM (inactive); in the experiment on LXFL 529, > 52 µM (inactive); with M19-MEL, 29.8 µM (inactive); in the experiment on RXF 631 it was 16.9 µM (inactive). In addition, the GI50 in the experiment with SNB-78 was 26.4 µM (inactive); in the experiment with XF498, 11.8 µM (inactive).

Consider `CCC(=O)c1c(NOC2OCC(OC(C)=O)C(OC(C)=O)C2OC(C)=O)nc(OC)n(C)c1=O` (stereo not drawn), for which the GI50 in the experiment on DMS-114 was > 100 µM (inactive); in the experiment on DMS-273, > 100 µM (inactive); with HOP-18, < 0.01 µM (active); in the experiment on KM-20L2, > 100 µM (inactive); in the experiment with LXFL 529, > 100 µM (inactive); in the experiment with M19-MEL, > 100 µM (inactive). The GI50 in the experiment with SNB-78 and in the experiment on XF498 was > 100 µM (inactive) throughout.

`CCCCCCC1=NOC(C(c2cc[nH]c2)N(C)[C@H](C(=O)OC)C(C)C)C1` (stereo partly drawn): the GI50 in the experiment on DMS-114 is 33.3 µM (inactive); with DMS-273, 25.8 µM (inactive); in the experiment with HOP-18, 58.1 µM (inactive); in the experiment on KM-20L2, 39 µM (inactive); in the experiment on LXFL 529 it was 46.8 µM (inactive); with M19-MEL, 32 µM (inactive). Moreover, the GI50 in the experiment with RXF 631 is 36.6 µM (inactive); in the experiment on SNB-78, 21.3 µM (inactive); in the experiment on XF498, 35.3 µM (inactive).

On to `CC1CC(C)CC(C)C(O)/C(C#N)=C/C=C/CC(C2CCCC2C(=O)O)OC(=O)CC(O)C(C)C1` (stereo not drawn), for which the GI50 in the experiment on DMS-114 was < 0.01 µM (active); with DMS-273, 0.0164 µM (active); in the experiment with HOP-18 it was 0.0189 µM (active); with KM-20L2, 0.0362 µM (active); with LXFL 529, < 0.01 µM (active); with M19-MEL, 0.0202 µM (active). The GI50 in the experiment with RXF 631 is 0.0317 µM (active); in the experiment on SNB-78, 0.0223 µM (active); with XF498, < 0.0164 µM (active).

With `COC(=O)c1cccn1C(=O)n1cccc1`, the GI50 with DMS-114, in the experiment on DMS-273, with HOP-18, in the experiment with KM-20L2, with LXFL 529 and in the experiment on M19-MEL was > 100 µM (inactive) throughout. Moreover, the GI50 with SNB-78 and with XF498 was > 100 µM (inactive) in each case.

For the compound `CCN(CC)CC(=O)NC1c2ccccc2Oc2c(C)cccc21` (stereo not drawn), the GI50 in the experiment on DMS-114 is > 100 µM (inactive); in the experiment with DMS-273, > 100 µM (inactive); with KM-20L2, 55.7 µM (inactive); with LXFL 529 it was > 100 µM (inactive); in the experiment with M19-MEL, > 100 µM (inactive); in the experiment on SNB-78, > 100 µM (inactive). Moreover, in the experiment with XF498, the GI50 is 40 µM (inactive).

Regarding `CC(=O)C1CCN(c2ccccc2)C1` (stereo not drawn), the GI50 in the experiment on DMS-114 was > 100 µM (inactive); with DMS-273 it was > 100 µM (inactive); in the experiment on KM-20L2, > 10 µM (inactive); in the experiment on M19-MEL, > 100 µM (inactive); with SNB-78 it was > 100 µM (inactive); in the experiment on XF498 it was > 100 µM (inactive).

For `O=CC1=CCC2c3[nH]c4ccccc4c3CCN2C1` (stereo not drawn), the GI50 with DMS-114 was 74.3 µM (inactive); with DMS-273, 82.4 µM (inactive); with HOP-18, > 396 µM (inactive); in the experiment on KM-20L2, 135 µM (inactive); in the experiment with LXFL 529 it was 55.7 µM (inactive); in the experiment on M19-MEL, 71.8 µM (inactive). Further, in the experiment with XF498, the GI50 is 72.3 µM (inactive).

With `O=C1C2C(C(=O)N1c1ccccc1)C1(c3ccccc3)OC2(c2ccccc2)c2ccccc21` (stereo not drawn), the GI50 in the experiment on DMS-114, with DMS-273, with HOP-18, in the experiment on KM-20L2, with LXFL 529 and in the experiment with M19-MEL was > 100 µM (inactive) throughout. Further, the GI50 in the experiment with RXF 631 was > 100 µM (inactive).

For the compound `COc1cc2cc3c4c(cc(OC)c(OC)c4c2cc1OC)CCN3`, the GI50 in the experiment with DMS-114 is 36 µM (inactive); in the experiment with DMS-273, 33.7 µM (inactive); with HOP-18 it was > 100 µM (inactive); in the experiment with KM-20L2, 27.5 µM (inactive); in the experiment with LXFL 529, 58.6 µM (inactive); in the experiment on M19-MEL it was 12.9 µM (inactive). Moreover, the GI50 with SNB-78 and in the experiment on XF498 was > 100 µM (inactive) in each case.

For `CN(C)C(=S)OC(Cn1cncn1)c1ccc(Cl)cc1Cl` (stereo not drawn), the GI50 in the experiment with DMS-114, with DMS-273, in the experiment with HOP-18, in the experiment on KM-20L2, in the experiment with LXFL 529 and in the experiment on M19-MEL was > 100 µM (inactive) each time. Besides, the GI50 with RXF 631 was > 100 µM (inactive).

Take `CC#CC(=O)Nc1ccccc1CC(c1c[nH]c2ccccc12)c1c[nH]c2ccccc12`: the GI50 with DMS-114 is 14.4 µM (inactive); in the experiment on DMS-273 it was 16.2 µM (inactive); in the experiment with LXFL 529, 15.1 µM (inactive); in the experiment on M19-MEL, 15.3 µM (inactive); in the experiment with SNB-78, 11.6 µM (inactive).

In the case of `O=C(O)C[C@@H](Cl)[C@H](NC(=O)OCc1ccccc1)C(=O)O`, the GI50 in the experiment on DMS-114, in the experiment with DMS-273, with HOP-18, in the experiment on KM-20L2, in the experiment on LXFL 529 and with M19-MEL was > 100 µM (inactive) each time. Further, the GI50 in the experiment on SNB-78 and in the experiment on XF498 was > 100 µM (inactive) in each case.

With `COC(=O)C1CCC2(C)[C@H](CCC3O[C@]32C)[C@@]1(C)CC(=O)c1ccoc1` (stereo partly drawn), the GI50 in the experiment with DMS-114 is 46.1 µM (inactive); in the experiment on DMS-273, > 100 µM (inactive); in the experiment with KM-20L2, > 100 µM (inactive); with LXFL 529 it was 40.6 µM (inactive); in the experiment on M19-MEL, > 100 µM (inactive); in the experiment on SNB-78, > 100 µM (inactive). In addition, in the experiment on XF498, the GI50 was 20.4 µM (inactive).

`COC(=O)CC(C(C(C)=O)C(=O)OCc1ccccc1)N1C(=O)OCC1c1ccccc1` (stereo not drawn): the GI50 in the experiment on DMS-114 is 52 µM (inactive); in the experiment on DMS-273 it was > 100 µM (inactive); in the experiment with KM-20L2 it was > 100 µM (inactive); with LXFL 529 it was 83.2 µM (inactive); in the experiment with M19-MEL it was > 100 µM (inactive); with RXF 631, > 100 µM (inactive). Further, the GI50 in the experiment on XF498 was 53.5 µM (inactive).

As to `CC([C@H]1CCC2C3CCC4CC5(CC[C@]4(C)C3CC[C@@]21C)c1ccccc1C(=O)N5C)N(C)C` (stereo partly drawn), the GI50 with DMS-114 is 32.4 µM (inactive); with DMS-273, 12.9 µM (inactive); in the experiment with HOP-18, > 100 µM (inactive); in the experiment on LXFL 529, 32.2 µM (inactive); with M19-MEL, 17 µM (inactive).

For the compound `COc1ccc2cc3[n+](cc2c1OC)CCc1cc2c(cc1-3)OCO2` [BERBERINE CHLORIDE], the GI50 in the experiment on DMS-114 was 4.23 µM (inactive); in the experiment on DMS-273, 10.3 µM (inactive); in the experiment with HOP-18 it was 106 µM (inactive); with KM-20L2 it was 28.2 µM (inactive); in the experiment with M19-MEL, 5.56 µM (inactive); with SNB-78 it was 53.8 µM (inactive). Further, the GI50 in the experiment on XF498 is 7.82 µM (inactive).

As to `C[C@@H](CN1CC(=O)NC(=O)C1)N1CC(=O)NC(=O)C1` [DEXRAZOXANE], the GI50 in the experiment with DMS-114 was 70.5 µM (inactive); in the experiment on DMS-273 it was 218 µM (inactive); with HOP-18 it was 422 µM (inactive); in the experiment with KM-20L2 it was 123 µM (inactive); in the experiment with M19-MEL it was 311 µM (inactive); in the experiment on SNB-78, 435 µM (inactive). The GI50 in the experiment with XF498 is 102 µM (inactive).
